Test: xn = mol fraction of the nth substance listed
Conditions: 101 kPa

With `CCOC(C)=O` + CCCCn1cc[n+](C)c1.Cl[Fe-](Cl)(Cl)Cl the viscosity (293.15 K, x2 = 0) was 0.46 mPa·s, the viscosity (298.15 K, x2 = 0) was 0.43 mPa·s and the viscosity (303.15 K, x2 = 0) was 0.41 mPa·s. It also gave a viscosity (308.15 K, x2 = 0) of 0.39 mPa·s, a viscosity (313.15 K, x2 = 0) of 0.37 mPa·s and a viscosity (318.15 K, x2 = 0) of 0.35 mPa·s. For the same compound, the viscosity (323.15 K, x2 = 0) was 0.33 mPa·s.
`CCCCn1cc[n+](C)c1.[Cl][Fe-]([Cl])([Cl])[Cl]` + CCOC(C)=O gave a viscosity (293.15 K, x1 = 0.1002) of 1.17 mPa·s, a viscosity (293.15 K, x1 = 0.1999) of 2.37 mPa·s and a viscosity (293.15 K, x1 = 0.3007) of 4.32 mPa·s. For the same compound, the viscosity (293.15 K, x1 = 0.3999) was 7.33 mPa·s, the viscosity (293.15 K, x1 = 0.5) was 11.15 mPa·s and the viscosity (293.15 K, x1 = 0.7) was 22.98 mPa·s. For the same compound, the viscosity (293.15 K, x1 = 0.7973) was 30.8 mPa·s, the viscosity (293.15 K, x1 = 0.9) was 41.3 mPa·s and the viscosity (293.15 K, x1 = 1) was 56.6 mPa·s. The viscosity (298.15 K, x1 = 0.1002) was 1.09 mPa·s, the viscosity (298.15 K, x1 = 0.1999) was 2.19 mPa·s and the viscosity (298.15 K, x1 = 0.3007) was 3.92 mPa·s. It also gave a viscosity (298.15 K, x1 = 0.3999) of 6.53 mPa·s, a viscosity (298.15 K, x1 = 0.5) of 9.78 mPa·s and a viscosity (298.15 K, x1 = 0.6001) of 14.09 mPa·s. For the same compound, the viscosity (298.15 K, x1 = 0.7) was 19.72 mPa·s, the viscosity (298.15 K, x1 = 1) was 46 mPa·s and the viscosity (303.15 K, x1 = 0.1002) was 1.02 mPa·s. It also gave a viscosity (303.15 K, x1 = 0.1999) of 2.01 mPa·s, a viscosity (303.15 K, x1 = 0.3007) of 3.56 mPa·s and a viscosity (303.15 K, x1 = 0.3999) of 5.84 mPa·s. The viscosity (303.15 K, x1 = 0.5) was 8.64 mPa·s, the viscosity (303.15 K, x1 = 0.7) was 16.92 mPa·s and the viscosity (303.15 K, x1 = 0.9) was 28.7 mPa·s. It also gave a viscosity (303.15 K, x1 = 1) of 37.9 mPa·s, a viscosity (308.15 K, x1 = 0.1002) of 0.97 mPa·s and a viscosity (308.15 K, x1 = 0.3007) of 3.26 mPa·s. It also gave a viscosity (308.15 K, x1 = 0.5) of 7.69 mPa·s, a viscosity (308.15 K, x1 = 0.7) of 14.65 mPa·s and a viscosity (308.15 K, x1 = 0.9) of 24.4 mPa·s. For the same compound, the viscosity (313.15 K, x1 = 0.1002) was 0.91 mPa·s, the viscosity (313.15 K, x1 = 0.3007) was 2.99 mPa·s and the viscosity (313.15 K, x1 = 0.3999) was 4.76 mPa·s. It also gave a viscosity (313.15 K, x1 = 0.5) of 6.88 mPa·s, a viscosity (313.15 K, x1 = 0.6001) of 9.63 mPa·s and a viscosity (313.15 K, x1 = 0.7) of 12.81 mPa·s. The viscosity (313.15 K, x1 = 0.9) was 21.04 mPa·s, the viscosity (313.15 K, x1 = 1) was 27 mPa·s and the viscosity (318.15 K, x1 = 0.1002) was 0.86 mPa·s. It also gave a viscosity (318.15 K, x1 = 0.1999) of 1.66 mPa·s, a viscosity (318.15 K, x1 = 0.5) of 6.19 mPa·s and a viscosity (318.15 K, x1 = 0.6001) of 8.65 mPa·s. The viscosity (318.15 K, x1 = 0.7) was 11.32 mPa·s, the viscosity (318.15 K, x1 = 0.7973) was 14.58 mPa·s and the viscosity (318.15 K, x1 = 1) was 23.24 mPa·s. The viscosity (323.15 K, x1 = 0.1002) was 0.82 mPa·s, the viscosity (323.15 K, x1 = 0.1999) was 1.57 mPa·s and the viscosity (323.15 K, x1 = 0.3007) was 2.56 mPa·s. For the same compound, the viscosity (323.15 K, x1 = 0.3999) was 3.98 mPa·s, the viscosity (323.15 K, x1 = 0.5) was 5.63 mPa·s and the viscosity (323.15 K, x1 = 0.6001) was 7.79 mPa·s. It also gave a viscosity (323.15 K, x1 = 0.7) of 10.08 mPa·s, a viscosity (323.15 K, x1 = 0.7973) of 12.88 mPa·s and a viscosity (323.15 K, x1 = 0.9) of 16.08 mPa·s. For the same compound, the viscosity (323.15 K, x1 = 1) was 20.16 mPa·s.
